The source of these data is paper PMC4245091, “Novel Virtual Screening Approach for the Discovery of Human Tyrosinase Inhibitors” (PLoS ONE, 2014).

Structures are written as SMILES.

The test deals with T1, Mushroom tyrosinase.
T1 construct: gene PPO1; commercial native mushroom preparation (Sigma-Aldrich)
The test is described as follows: L-tyrosine to dopachrome, absorbance at […] nm. It counts as biochemical. Particulars: L-tyrosine 0.2 mg/ml; 2 µg/ml enzyme; 100 mM phosphate pH 6.8; 5% ethanol; 25 °C; 30 min.

In general, IC50 refers to the concentration needed to halve the response being measured. A higher IC50 goes with a need for much substance.

For `CC(C)c1ccc(C(=O)CC(Sc2ccc(Cl)cc2)C(=O)O)cc1` (stereo not shown) [Lead1], the IC50 stood at 8 µM.
